Test results as given in patent publication US9113629B2, “4-amino-6-(4-substituted-phenyl)-picolinates and 6-amino-2-(4-substituted-phenyl)-pyrimidine-4-carboxylates and their use as herbicides” (DOW AGROSCIENCES LLC, priority 2013, dated 2015).
Like-named read-outs stand apart in the source and are kept apart here.

How the values were obtained:
[1] = tested on: Key Grass and Sedge Weeds as well as Grass Crops; assay: Post-emergent Test II herbicidal activity (Table 6); type: in vivo; settings: post-emergence, 336 h; for pest or weed control at 70 g/ha: application rate 70 g ai/ha; for pest or weed control at 140 g/ha: application rate 140 g ai/ha
Procedure, shortened: (§1)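 Post-emergence foliar spray, 187 L/ha, track sprayer at 43 cm above canopy. Carrier: acetone/water/IPA/DMSO/Atplus 411F/Triton X-155. Plants at 1st–2nd true leaf; subirrigated afterwards; % injury scored visually at 14 d.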

[2] = tested on: Key Broadleaf Weed and Crop Species; assay: Post-emergent Test II herbicidal activity (Table 5); type: in vivo; settings: post-emergence, 336 h, post-emergent, 14 days after application; for pest or weed control at 70 g/ha: 70 g ai/ha; for pest or weed control at 140 g/ha: 140 g ai/ha
Procedure, shortened: as §1

[3] = Triticum aestivum, TRZSS (wheat), read-out: Visual Growth Reduction (%) 14 Days After Application, TRZSS
[4] = CYPES: yellow nutsedge (Cyperus esculentus), read-out: Visual Growth Reduction (%) 14 Days After Application, CYPES
[5] = DIGSA: crabgrass (Digitaria sanguinalis), read-out: Visual Growth Reduction (%) 14 Days After Application, DIGSA
[6] = ECHCG: barnyardgrass (Echinochloa crus-galli), read-out: Visual Growth Reduction (%) 14 Days After Application, ECHCG
[7] = ORYSA: rice (Oryza sativa), read-out: Visual Growth Reduction (%) 14 Days After Application, ORYSA
[8] = SETFA: giant foxtail (Setaria faberi), read-out: Visual Growth Reduction (%) 14 Days After Application, SETFA
[9] = SORVU: grain sorghum (Sorghum vulgare), read-out: Visual Growth Reduction (%) 14 Days After Application, SORVU
[10] = ZEAMX: maize, corn (Zea mays), read-out: Visual Growth Reduction (%) 14 Days After Application, ZEAMX
[11] = ABUTH: velvetleaf (Abutilon theophrasti), read-out: Visual Growth Reduction (%) 14 Days After Application ABUTH
[12] = AMARE: redroot pigweed (Amaranthus retroflexus), read-out: Visual Growth Reduction (%) 14 Days After Application AMARE
[13] = BRSNN: oilseed-rape, canola (Brassica napus), read-out: Visual Growth Reduction (%) 14 Days After Application BRSNN
[14] = CHEAL: lambsquarters (Chenopodium album), read-out: Visual Growth Reduction (%) 14 Days After Application CHEAL
[15] = EPHHL: wild poinsettia (Euphorbia heterophylla), read-out: Visual Growth Reduction (%) 14 Days After Application EPHHL
[16] = HELAN: sunflower (Helianthus annuus), read-out: Visual Growth Reduction (%) 14 Days After Application HELAN
[17] = VIOTR: wild pansy (Viola tricolor), read-out: Visual Growth Reduction (%) 14 Days After Application VIOTR

## Nc1cc(-c2ccc(Br)c(F)c2)nc(C(=O)O)c1Cl [Compound 110, 4-Amino-6-(4-bromo-3-fluorophenyl)-3-chloropicolinic acid]
[1]; [3]
  pest or weed control at 70 g/ha: 45 to 59%
  pest or weed control at 140 g/ha: 45 to 59%
[1]; [4]
  pest or weed control at 70 g/ha: 45 to 59%
  pest or weed control at 140 g/ha: 45 to 59%
[1]; [5]
  pest or weed control at 70 g/ha: 75 to 84%
  pest or weed control at 140 g/ha: 75 to 84%
[1]; [6]
  pest or weed control at 70 g/ha: 60 to 74%
  pest or weed control at 140 g/ha: 75 to 84%
[1]; [7]
  pest or weed control at 70 g/ha: 0 to 29%
  pest or weed control at 140 g/ha: 0 to 29%
[1]; [8]
  pest or weed control at 70 g/ha: 60 to 74%
  pest or weed control at 140 g/ha: 60 to 74%
[1]; [9]
  pest or weed control at 70 g/ha: 85 to 94%
  pest or weed control at 140 g/ha: 85 to 94%
[1]; [10]
  pest or weed control at 70 g/ha: 45 to 59%
  pest or weed control at 140 g/ha: 60 to 74%
[2]; [11]
  pest or weed control at 70 g/ha: 95 to 100%
  pest or weed control at 140 g/ha: 95 to 100%
[2]; [12]
  pest or weed control at 70 g/ha: 95 to 100%
  pest or weed control at 140 g/ha: 95 to 100%
[2]; [13]
  pest or weed control at 70 g/ha: 95 to 100%
  pest or weed control at 140 g/ha: 95 to 100%
[2]; [14]
  pest or weed control at 70 g/ha: 95 to 100%
  pest or weed control at 140 g/ha: 95 to 100%
[2]; [15]
  pest or weed control at 70 g/ha: 95 to 100%
  pest or weed control at 140 g/ha: 95 to 100%
[2]; [16]
  pest or weed control at 70 g/ha: 95 to 100%
  pest or weed control at 140 g/ha: 95 to 100%
[2]; [17]
  pest or weed control at 70 g/ha: 45 to 59%
  pest or weed control at 140 g/ha: 45 to 59%
